# Experimental data taken from EPA's ToxValDB 9.5 (doi:10.2903/j.efsa.2013.3111).
# Tests used:
# Typhlodromus pyri = experiment: LR50; higher = less toxic; settings: duration: 7 days, mortality
# Colinus virginianus = settings: acute, oral, mortality
# Daphnia magna = settings: chronic/long-term; duration: 21 days; reproduction
# Bibionidae = settings: chronic/long-term; duration: 28 days; other
# Apis mellifera = settings: acute; duration: 48 hours; oral; unspecified; mortality
structure (smiles),measurement,setting,value
CC(C)CC(C)c1sccc1NC(=O)c1cn(C)nc1C(F)(F)F (stereo unspecified) [Penthiopyrad],LR50,Typhlodromus pyri; acute,238 g/ha
same,LR50,Typhlodromus pyri; chronic/long-term,124 g/ha
same,LD50,Colinus virginianus; diet,> 1910 mg/kg-day
same,LD50,Colinus virginianus,> 2250 mg/kg-day
same,NOAEC,Daphnia magna,471 µg/L
same,NOAEC,Bibionidae,50 mg/kg
same,LC50,"Pimephales promelas; acute, duration: 96 hours, mortality",0.29 µg/mL
same,NOAEC,"Pimephales promelas; chronic/long-term, duration: 33 days, growth",51 µg/L
same,LD50,Apis mellifera,> 500 µg/piece
same,LD50,"Rattus norvegicus; acute, oral, mortality",> 2000 mg/kg
same,NOAEL,"Rattus norvegicus; chronic, body weight",54 mg/kg-day
same,LOAEL,"Anas platyrhynchos; reproductive, reproduction",719 mg/kg-day
same,NOAEL,"Anas platyrhynchos; reproductive, reproduction",207 mg/kg-day
same,LC50,"Anas platyrhynchos; short-term, oral, feed, no effects",> 5790 mg/kg-day
same,LC50,"Tagia sp.; acute, duration: 14 days, mortality",> 1000 mg/kg
same,NOEC,"Tagia sp.; chronic/long-term, duration: 56 days, reproduction",≥ 48 mg/kg
